# Source: paper PMC8843742, “Eltrombopag inhibits TET dioxygenase to contribute to hematopoietic stem cell expansion in aplastic anemia” (The Journal of Clinical Investigation, 2022)
# Columns and labels:
# [1] = molecular target: T1, thrombopoietin receptor (human TPOR) (Homo sapiens, UniProt P40238); experiment: STAT5 phosphorylation Western blot in parental vs human TPOR-expressing murine cells, […]; format: cell-based
# T1 construct: gene MPL; MPL open reading frame (NM_005373.2) in pCMV-3Tag-3a, expressed in BaF3 and 32D cells
# T1 sequence (P40238 26-635): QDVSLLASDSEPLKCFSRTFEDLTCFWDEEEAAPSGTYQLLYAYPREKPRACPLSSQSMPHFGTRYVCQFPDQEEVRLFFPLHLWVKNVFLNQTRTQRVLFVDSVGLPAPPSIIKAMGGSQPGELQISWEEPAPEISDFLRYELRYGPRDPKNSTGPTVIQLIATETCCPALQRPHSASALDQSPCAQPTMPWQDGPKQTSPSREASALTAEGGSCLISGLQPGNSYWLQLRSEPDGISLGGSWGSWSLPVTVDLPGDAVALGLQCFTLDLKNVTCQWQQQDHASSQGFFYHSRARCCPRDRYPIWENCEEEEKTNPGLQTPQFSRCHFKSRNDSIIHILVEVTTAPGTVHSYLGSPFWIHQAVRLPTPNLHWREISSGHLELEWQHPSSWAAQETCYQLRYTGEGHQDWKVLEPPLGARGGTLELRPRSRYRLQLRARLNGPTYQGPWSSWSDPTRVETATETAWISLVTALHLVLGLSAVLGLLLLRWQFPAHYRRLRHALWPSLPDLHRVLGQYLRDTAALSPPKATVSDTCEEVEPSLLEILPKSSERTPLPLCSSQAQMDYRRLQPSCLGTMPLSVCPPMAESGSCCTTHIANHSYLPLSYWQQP
# [2] = molecular target: T2, TET1 (Homo sapiens, UniProt Q8NFU7); experiment: 5hmC ELISA with recombinant protein; format: biochemical
# T2 construct: recombinant catalytic domain (Epigentek, E12002-1)
# T2 sequence (Q8NFU7 1418-2136 limits assumed): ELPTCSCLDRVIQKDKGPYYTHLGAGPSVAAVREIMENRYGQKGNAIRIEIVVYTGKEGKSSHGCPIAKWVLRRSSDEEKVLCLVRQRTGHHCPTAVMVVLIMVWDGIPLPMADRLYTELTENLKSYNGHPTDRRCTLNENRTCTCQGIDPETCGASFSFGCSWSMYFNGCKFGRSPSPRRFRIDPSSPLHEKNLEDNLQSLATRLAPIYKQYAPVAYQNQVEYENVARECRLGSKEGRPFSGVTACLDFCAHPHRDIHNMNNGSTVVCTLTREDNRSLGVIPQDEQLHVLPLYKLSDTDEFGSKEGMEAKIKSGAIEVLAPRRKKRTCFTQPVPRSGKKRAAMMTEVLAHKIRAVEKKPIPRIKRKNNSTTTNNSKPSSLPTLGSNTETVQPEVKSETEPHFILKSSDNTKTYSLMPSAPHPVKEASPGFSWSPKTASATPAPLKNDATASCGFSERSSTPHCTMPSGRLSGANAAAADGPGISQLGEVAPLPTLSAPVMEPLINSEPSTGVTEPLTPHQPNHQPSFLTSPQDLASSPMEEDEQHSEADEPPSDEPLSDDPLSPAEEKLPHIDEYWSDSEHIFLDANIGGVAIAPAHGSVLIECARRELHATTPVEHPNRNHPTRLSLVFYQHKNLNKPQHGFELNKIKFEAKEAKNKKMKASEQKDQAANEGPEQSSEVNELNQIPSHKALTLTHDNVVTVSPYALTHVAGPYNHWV
# [3] = molecular target: T3, TET3 (Homo sapiens, UniProt O43151); experiment: 5hmC ELISA with recombinant protein; format: biochemical
# T3 construct: recombinant catalytic domain (BPS Bioscience, 50163)
# T3 sequence (O43151 850-1795 limits assumed): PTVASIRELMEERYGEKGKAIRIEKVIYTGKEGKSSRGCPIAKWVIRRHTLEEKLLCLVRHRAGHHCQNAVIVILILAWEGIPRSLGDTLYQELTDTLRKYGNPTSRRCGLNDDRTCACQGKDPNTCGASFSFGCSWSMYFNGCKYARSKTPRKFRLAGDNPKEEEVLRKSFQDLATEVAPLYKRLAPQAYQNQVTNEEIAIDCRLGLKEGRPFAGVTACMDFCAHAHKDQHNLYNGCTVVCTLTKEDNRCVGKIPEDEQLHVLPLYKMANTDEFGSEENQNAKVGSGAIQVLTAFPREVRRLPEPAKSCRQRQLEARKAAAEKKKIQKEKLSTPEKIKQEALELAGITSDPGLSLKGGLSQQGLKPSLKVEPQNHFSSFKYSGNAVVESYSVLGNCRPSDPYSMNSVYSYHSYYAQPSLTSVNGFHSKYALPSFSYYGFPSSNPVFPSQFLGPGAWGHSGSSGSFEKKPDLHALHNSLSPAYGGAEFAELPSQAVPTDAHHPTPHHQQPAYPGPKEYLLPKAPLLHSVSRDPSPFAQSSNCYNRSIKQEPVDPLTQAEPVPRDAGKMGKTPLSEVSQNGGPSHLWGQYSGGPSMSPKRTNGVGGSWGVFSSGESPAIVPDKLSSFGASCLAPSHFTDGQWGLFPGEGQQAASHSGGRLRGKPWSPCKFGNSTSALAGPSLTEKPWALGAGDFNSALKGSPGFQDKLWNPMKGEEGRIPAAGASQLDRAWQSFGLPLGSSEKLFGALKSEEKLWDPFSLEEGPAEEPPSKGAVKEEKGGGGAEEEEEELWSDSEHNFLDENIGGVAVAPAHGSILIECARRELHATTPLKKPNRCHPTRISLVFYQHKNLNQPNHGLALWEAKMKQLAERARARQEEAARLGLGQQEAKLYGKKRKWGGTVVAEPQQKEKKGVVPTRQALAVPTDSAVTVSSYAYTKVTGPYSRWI
Structure (SMILES),STAT5 phosphorylation Western blot in parental vs human TPOR-expressing murine c [1],IC50 [2],IC50 [3]
"O=C(Nc1nc(-c2cc(Cl)cs2)c(N2CCN(C3CCCCC3)CC2)s1)c1cnc(N2CCC(C(=O)O)CC2)c(Cl)c1 [Apag, avatrombopag]",a chemically unrelated non-peptidyl TPOR agonist) all activated the JAK/STAT pathway to the same extent in these cells,,
"CC1=NN(c2ccc(C)c(C)c2)C(=O)/C1=N\Nc1cccc(-c2cccc(C(=O)O)c2)c1O [Epag, Eltrombopag]",Reconstitution of human TPOR in murine cells restored STAT5 phosphorylation without any measurable changes in the dioxygenase activity.,1000 ± 100 nM,1800 ± 100 nM
